Results taken from patent US8674136B2, “Aromatic butan-2-ol compounds and preparation and uses thereof” (Institute of Pharmacology and Toxicology Academy of …, priority 2010, dated 2014).
Converted amounts (≈) assume the structure as drawn. Read-outs that look alike come from different tables or passages of the source.

Tested on: Standard Strain H37Rv of mycobacterium tuberculosis
Assay: MIC against standard strain H37Rv by Microplate Alamar Blue Assay (MABA)
Format: cell-based
Conditions: M. tuberculosis H37Rv, 7H9 medium, 37° C.
[1] = Mycobacterium tuberculosis, H37RV, read-out: MIC

| Compound | MIC | MIC [1] |
| --- | --- | --- |
| COc1cc2ccc(Br)cc2cc1C(c1ccc(Cl)cc1)C(O)(CCN(C)C)c1cccc2ccccc12 (single isomer, unassigned) [Compound 3, 1-(4-chlorophenyl)-2-(1-naphthyl)-1-[2-(7-bromo-3-methoxy)naphthyl]-4-(N,N-dimethylamino)-butan-2-ol] | 2.883 µg/mL (≈ 4.89 µM) |  |
| COc1cc2ccccc2cc1C(c1ccc(Cl)cc1)C(O)(CCN(C)C)c1cccc2ccccc12 (single isomer, unassigned) [Compound 5, 1-(4-chlorophenyl)-2-(1-naphthyl)-1-[2-(3-methoxy)naphthyl]-4-(N,N-dimethylamino)-butan-2-ol] | 3.052 µg/mL (≈ 5.98 µM) |  |
| COc1cc2ccccc2cc1C(c1ccc(Cl)cc1)C(O)(CCN(C)C)c1cccc2ccccc12 (single isomer, unassigned) [Compound 6, 1-(4-chlorophenyl)-2-(1-naphthyl)-1-[2-(3-methoxy)naphthyl]-4-(N,N-dimethylamino)-butan-2-ol] | 1.454 µg/mL (≈ 2.85 µM) |  |
| COc1cc2ccccc2cc1C(c1ccccc1)C(O)(CCN(C)C)c1cccc2ccccc12 (stereo not shown) [Compound 1, 1-phenyl-2-(1-naphthyl)-1-[2-(3-methoxy)-naphthyl]-4-(N,N-dimethylamino)-butan-2-ol] |  | 2.05 µg/mL (≈ 4.3 µM) |
| COc1cc2ccccc2cc1C(c1ccccc1)C(O)(CCN(C)C)c1cccc2ccccc12 (stereo not shown) [Compound 2, 1-phenyl-2-(1-naphthyl)-1-[2-(3-methoxy)-naphthyl]-4-(N,N-dimethylamino)-butan-2-ol] | 3.178 µg/mL (≈ 6.68 µM) |  |
| COc1cc2ccc(Br)cc2cc1C(c1ccc(Cl)cc1)C(O)(CCN(C)C)c1ccc(Br)cc1 (stereo not shown) [Compound 7, 1-(4-chlorophenyl)-2-(4-bromophenyl)-1-[2-(7-bromo-3-methoxy)naphthyl]-4-(N,N-dimethylamino)-butan-2-ol] |  | 1 µg/mL (≈ 1.62 µM) |
| COc1cc2ccc(Br)cc2cc1C(c1ccc(Cl)cc1)C(O)(CCN(C)C)c1ccc(Br)cc1 (stereo not shown) [Compound 8, 1-(4-chlorophenyl)-2-(4-bromophenyl)-1-[2-(7-bromo-3-methoxy)naphthyl]-4-(N,N-dimethylamino)-butan-2-ol] | 0.956 µg/mL (≈ 1.55 µM) |  |
| COc1cc2ccc(Br)cc2cc1C(c1ccccc1)C(O)(CCN(C)C)c1ccc(Br)cc1 (stereo not shown) [Compound 9, 1-phenyl-2-(4-bromophenyl)-1-[2-(7-bromo-3-methoxy)naphthyl]-4-(N,N-dimethylamino)-butan-2-ol] | 0.118 µg/mL (≈ 0.202 µM) |  |
| COc1cc2ccc(Br)cc2cc1C(c1ccccc1)C(O)(CCN(C)C)c1ccc(Br)cc1 (stereo not shown) [Compound 10, 1-phenyl-2-(4-bromophenyl)-1-[2-(7-bromo-3-methoxy)naphthyl]-4-(N,N-dimethylamino)-butan-2-ol] | 2.000 µg/mL (≈ 3.43 µM) |  |
| COc1cc2ccc(Br)cc2cc1C(c1ccccc1)C(O)(CCN(C)C)c1cccc(Br)c1 (stereo not shown) [Compound 11, 1-phenyl-2-(3-bromophenyl)-1-[2-(7-bromo-3-methoxy)naphthyl]-4-(N,N-dimethylamino)-butan-2-ol] | 0.103 µg/mL (≈ 0.177 µM) |  |
| COc1cc2ccc(Br)cc2cc1C(c1ccccc1)C(O)(CCN(C)C)c1cccc(Br)c1 (stereo not shown) [Compound 12, 1-phenyl-2-(3-bromophenyl)-1-[2-(7-bromo-3-methoxy)naphthyl]-4-(N,N-dimethylamino)-butan-2-ol] | 1.000 µg/mL (≈ 1.71 µM) |  |
| COc1cc2ccccc2cc1C(c1ccc(Cl)cc1)C(O)(CCN(C)C)c1ccc(F)cc1F (stereo not shown) [Compound 13, 1-(4-chlorophenyl)-2-(2,4-difluorophenyl)-1-[2-(3-methoxy)naphthyl]-4-(N,N-dimethylamino)-butan-2-ol] |  | 1 µg/mL (≈ 2.02 µM) |
| COc1cc2ccc(Br)cc2cc1C(c1ccc(Cl)cc1)C(O)(CCN(C)C)c1cccc(Br)c1 (stereo not shown) [Compound 15, 1-(4-chlorophenyl)-2-(3-bromophenyl)-1-[2-(7-bromo-3-methoxy)naphthyl]-4-(N,N-dimethylamino)-butan-2-ol] | 2.166 µg/mL (≈ 3.51 µM) |  |
| COc1cc2ccc(Br)cc2cc1C(c1ccc(Cl)cc1)C(O)(CCN(C)C)c1ccccc1 (stereo not shown) [Compound 17, 1-(4-chlorophenyl)-2-phenyl-1-[2-(7-bromo-3-methoxy)naphthyl]-4-(N,N-dimethylamino)-butan-2-ol] | 2.000 µg/mL (≈ 3.71 µM) |  |
| COc1cc2ccc(Br)cc2cc1C(c1ccc(Cl)cc1)C(O)(CCN(C)C)c1ccccc1 (stereo not shown) [Compound 18, 1-(4-chlorophenyl)-2-phenyl-1-[2-(7-bromo-3-methoxy)naphthyl]-4-(N,N-dimethylamino)-butan-2-ol] | 0.109 µg/mL (≈ 0.202 µM) |  |
| COc1cc2ccc(Br)cc2cc1C(c1ccccc1)C(O)(CCN(C)C)c1ccccc1 (stereo not shown) [Compound 19, 1,2-diphenyl-1-[2-(7-bromo-3-methoxy)naphthyl]-4-(N,N-dimethylamino)-butan-2-ol] | 0.206 µg/mL (≈ 0.408 µM) |  |
| COc1cc2ccc(Br)cc2cc1C(c1ccccc1)C(O)(CCN(C)C)c1ccccc1 (stereo not shown) [Compound 20, 1,2-diphenyl-1-[2-(7-bromo-3-methoxy)naphthyl]-4-(N,N-dimethylamino)-butan-2-ol] | 2.000 µg/mL (≈ 3.96 µM) |  |
| COc1cc2ccc(Br)cc2cc1C(c1ccc(Cl)cc1)C(O)(CCN(C)C)c1ccccc1Br (stereo not shown) [Compound 21, 1-(4-chlorophenyl)-2-(2-bromophenyl)-1-[2-(7-bromo-3-methoxy)naphthyl]-4-(N,N-dimethylamino)-butan-2-ol] | 2.000 µg/mL (≈ 3.24 µM) |  |
| COc1cc2ccc(Br)cc2cc1C(c1ccc(Cl)cc1)C(O)(CCN(C)C)c1ccccc1Br (stereo not shown) [Compound 22, 1-(4-chlorophenyl)-2-(2-bromophenyl)-1-[2-(7-bromo-3-methoxy)naphthyl]-4-(N,N-dimethylamino)-butan-2-ol] | 0.111 µg/mL (≈ 0.18 µM) |  |
| COc1cc2ccc(Br)cc2cc1C(c1ccccc1)C(O)(CCN(C)C)c1ccccc1Br (stereo not shown) [Compound 23, 1-phenyl-2-(2-bromophenyl)-1-[2-(7-bromo-3-methoxy)naphthyl]-4-(N,N-dimethylamino)-butan-2-ol] | >32 µg/mL |  |
| COc1cc2ccc(Br)cc2cc1C(c1ccccc1)C(O)(CCN(C)C)c1ccccc1Br (stereo not shown) [Compound 24, 1-phenyl-2-(2-bromophenyl)-1-[2-(7-bromo-3-methoxy)naphthyl]-4-(N,N-dimethylamino)-butan-2-ol] | 0.224 µg/mL (≈ 0.384 µM) |  |
| COc1cc2ccc(Br)cc2cc1C(c1ccccc1)C(O)(CCN(C)C)c1cccc2ccccc12 (stereo not shown) [Compound 26, 1-phenyl-2-(1-naphthyl)-1-[2-(7-bromo-3-methoxy)naphthyl]-4-(N,N-dimethylamino)-butan-2-ol] | 1.977 µg/mL (≈ 3.57 µM) |  |
| COc1cc2ccc(Br)cc2cc1C(c1ccc(C)cc1)C(O)(CCN(C)C)c1cccc2ccccc12 (stereo not shown) [Compound 29, 1-(4-methylphenyl)-2-(1-naphthyl)-1-[2-(7-bromo-3-methoxy)naphthyl]-4-(N,N-dimethylamino)-butan-2-ol] | 0.222 µg/mL (≈ 0.39 µM) |  |
| COc1c(C(c2ccccc2)C(O)(CCN(C)C)c2cccc3ccccc23)cc2cc(Br)ccc2c1Br (stereo not shown) [Compound 31, 1-phenyl-2-(1-naphthyl)-1-[2-(4,7-dibromo-3-methoxy)naphthyl]-4-(N,N-dimethylamino)-butan-2-ol] | 0.124 µg/mL (≈ 0.196 µM) |  |
| COc1c(C(c2ccccc2)C(O)(CCN(C)C)c2cccc3ccccc23)cc2cc(Br)ccc2c1Br (stereo not shown) [Compound 32, 1-phenyl-2-(1-naphthyl)-1-[2-(4,7-dibromo-3-methoxy)naphthyl]-4-(N,N-dimethylamino)-butan-2-ol] | 1.000 µg/mL (≈ 1.58 µM) |  |
